Test results taken from paper PMC4266366 (Medical Science Monitor : International Medical Journal of …, 2014).

Tested on: BACE expression in transfected INR-32 human neuroblastoma cells
Test: Selection of BACE1 siRNAs: inhibition of BACE expression in transfected cells
Format: cell-based
Conditions: BACE1 siRNA (75 pmoles) with Oligofectamin reagent

With “siRNA A5 3: siRNA A5 3 - 3′GCAAGGAGUACAACUAUGAUU 5′, 3′GGAGGGAGCAUGAUCAUUGUU5′ (chemistry not given here)” as the substance, how does the “inhibition of BACE expression” value read?
Its value is 86.5%.
